Numbers after ± are expanded uncertainties.
Assay: mn = molality of the nth substance listed, in mol/kg
Conditions: 100 kPa, Liquid; for speed of sound: Frequency=3 MHz, Sing-around technique in a fixed-path interferometer; for mass density: Vibrating tube method

O=S(=O)([O-])C(F)(F)F.O=S(=O)([O-])C(F)(F)F.[Mg+2] [magnesium triflate] + CN(C)C=O
Conditions | mass density, 298.15 K [kg/m3] | mass density, 303.15 K [kg/m3] | mass density, 308.15 K [kg/m3] | mass density, 313.15 K [kg/m3] | mass density, 318.15 K [kg/m3] | speed of sound, 298.15 K [m/s] | speed of sound, 303.15 K [m/s] | speed of sound, 308.15 K [m/s] | speed of sound, 313.15 K [m/s] | speed of sound, 318.15 K [m/s]
m1 = 0.01036 | 946.019 ± 0.43 | 941.245 ± 0.43 | 936.47 ± 0.43 | 931.673 ± 0.43 | 926.87 ± 0.43 | – | – | – | – | –
m1 = 0.01706 | 947.369 ± 0.42 | 942.601 ± 0.43 | 937.828 ± 0.43 | 933.038 ± 0.43 | 928.233 ± 0.43 | 1457.4 ± 1.3 | 1438.2 ± 1.3 | 1418.9 ± 1.3 | 1399.7 ± 1.3 | 1380.5 ± 1.3
m1 = 0.0217 | 948.297 ± 0.42 | 943.537 ± 0.42 | 938.762 ± 0.42 | 933.973 ± 0.42 | 929.172 ± 0.42 | 1457.3 ± 1.3 | 1438.2 ± 1.3 | 1418.9 ± 1.3 | 1399.8 ± 1.3 | 1380.7 ± 1.3
m1 = 0.03662 | 951.268 ± 0.42 | 946.512 ± 0.42 | 941.741 ± 0.42 | 936.956 ± 0.42 | 932.159 ± 0.42 | 1457.3 ± 1.3 | 1438.2 ± 1.3 | 1419.1 ± 1.3 | 1400 ± 1.3 | 1380.9 ± 1.3
m1 = 0.0512 | 954.144 ± 0.42 | 949.392 ± 0.42 | 944.627 ± 0.42 | 939.848 ± 0.42 | 935.055 ± 0.42 | 1457.3 ± 1.3 | 1438.2 ± 1.3 | 1419.1 ± 1.3 | 1400.1 ± 1.3 | 1381.1 ± 1.3
m1 = 0.06466 | 956.788 ± 0.41 | 952.038 ± 0.41 | 947.275 ± 0.41 | 942.499 ± 0.41 | 937.711 ± 0.41 | 1457.2 ± 1.3 | 1438.2 ± 1.3 | 1419.1 ± 1.3 | 1400.2 ± 1.3 | 1381.2 ± 1.3
m1 = 0.082 | 960.152 ± 0.41 | 955.393 ± 0.41 | 950.635 ± 0.41 | 945.853 ± 0.41 | 941.072 ± 0.41 | 1457.1 ± 1.3 | 1438.1 ± 1.3 | 1419.1 ± 1.3 | 1400.2 ± 1.3 | 1381.3 ± 1.3
m1 = 0.102 | 964.032 ± 0.41 | 959.291 ± 0.41 | 954.537 ± 0.41 | 949.768 ± 0.41 | 944.991 ± 0.41 | 1456.9 ± 1.3 | 1438 ± 1.3 | 1419.1 ± 1.3 | 1400.2 ± 1.3 | 1381.5 ± 1.3
m1 = 0.1234 | 968.107 ± 0.41 | 963.366 ± 0.41 | 958.615 ± 0.41 | 953.853 ± 0.41 | 949.079 ± 0.41 | 1456.7 ± 1.3 | 1437.9 ± 1.3 | 1419 ± 1.3 | 1400.3 ± 1.3 | 1381.5 ± 1.3
m1 = 0.1544 | 974.074 ± 0.41 | 969.343 ± 0.41 | 964.6 ± 0.41 | 959.846 ± 0.41 | 955.083 ± 0.41 | 1456.4 ± 1.3 | 1437.6 ± 1.3 | 1418.9 ± 1.3 | 1400.2 ± 1.3 | 1381.6 ± 1.3

O=S(=O)([O-])C(F)(F)F.O=S(=O)([O-])C(F)(F)F.[Ca+2] [calcium trifluoromethanesulfonate] + CC(=O)N(C)C
Conditions | mass density, 298.15 K [kg/m3] | mass density, 303.15 K [kg/m3] | mass density, 308.15 K [kg/m3] | mass density, 313.15 K [kg/m3] | mass density, 318.15 K [kg/m3] | speed of sound, 298.15 K [m/s] | speed of sound, 303.15 K [m/s] | speed of sound, 308.15 K [m/s] | speed of sound, 313.15 K [m/s] | speed of sound, 318.15 K [m/s]
m1 = 0.02187 | 940.927 ± 0.44 | 936.332 ± 0.45 | 931.736 ± 0.45 | 927.121 ± 0.45 | 922.5 ± 0.5 | 1457 ± 1.3 | 1437.3 ± 1.3 | 1417.6 ± 1.3 | 1398 ± 1.3 | 1378.6 ± 1.3
m1 = 0.03271 | 943.201 ± 0.44 | 938.61 ± 0.44 | 934.019 ± 0.44 | 929.41 ± 0.44 | 924.794 ± 0.44 | 1457.4 ± 1.3 | 1437.8 ± 1.3 | 1418.2 ± 1.3 | 1398.7 ± 1.3 | 1379.3 ± 1.3
m1 = 0.04637 | 946.038 ± 0.43 | 941.451 ± 0.43 | 936.856 ± 0.43 | 932.246 ± 0.43 | 927.636 ± 0.44 | 1458 ± 1.3 | 1438.5 ± 1.3 | 1419 ± 1.3 | 1399.4 ± 1.3 | 1380 ± 1.3
m1 = 0.06551 | 949.951 ± 0.43 | 945.373 ± 0.43 | 940.788 ± 0.43 | 936.196 ± 0.43 | 931.596 ± 0.43 | 1458.5 ± 1.3 | 1439 ± 1.3 | 1419.5 ± 1.3 | 1400.2 ± 1.3 | 1380.9 ± 1.3
m1 = 0.08271 | 953.447 ± 0.42 | 948.878 ± 0.43 | 944.3 ± 0.43 | 939.716 ± 0.43 | 935.124 ± 0.43 | 1459 ± 1.3 | 1439.6 ± 1.3 | 1420.2 ± 1.3 | 1400.9 ± 1.3 | 1381.7 ± 1.3
m1 = 0.1052 | 957.976 ± 0.42 | 953.415 ± 0.42 | 948.847 ± 0.42 | 944.27 ± 0.42 | 939.688 ± 0.42 | 1459.6 ± 1.3 | 1440.3 ± 1.3 | 1421 ± 1.3 | 1401.8 ± 1.3 | 1382.7 ± 1.3
m1 = 0.1305 | 963.026 ± 0.42 | 958.471 ± 0.42 | 953.91 ± 0.42 | 949.342 ± 0.42 | 944.771 ± 0.42 | 1460.3 ± 1.3 | 1441 ± 1.3 | 1421.8 ± 1.3 | 1402.7 ± 1.3 | 1383.7 ± 1.3
m1 = 0.1577 | 968.401 ± 0.41 | 963.856 ± 0.41 | 959.304 ± 0.41 | 954.745 ± 0.41 | 950.183 ± 0.42 | 1460.9 ± 1.3 | 1441.8 ± 1.3 | 1422.7 ± 1.3 | 1403.7 ± 1.3 | 1384.8 ± 1.3
m1 = 0.1977 | 976.212 ± 0.41 | 971.679 ± 0.41 | 967.14 ± 0.41 | 962.594 ± 0.41 | 958.045 ± 0.41 | 1461.8 ± 1.3 | 1442.8 ± 1.3 | 1423.9 ± 1.3 | 1405 ± 1.3 | 1386.2 ± 1.3

From the NIST ThermoML archive (doi:10.1016/j.jct.2015.08.033)
